Source: ChEMBL document CHEMBL1136685, “Structure-activity relationship of cyclic peptide penta-c[Asp-His(6)-DPhe(7)-Arg(8)-Trp(9)-Lys]-NH(2) at the human melanocortin-1 and -4 receptors: His(6) substitution” (Bioorg Med Chem Lett, 2003)

Key:
Melanocortin receptor 4 [1] = biological target: T1, Melanocortin receptor 4 (Homo sapiens, UniProt P32245); assay: Agonist activity at human melanocortin receptor (hMC4R).; format: functional
[2] = biological target: T2, Melanocyte-stimulating hormone receptor (Homo sapiens, UniProt Q01726); assay: Agonist activity at human melanocortin receptor (hMC1R).; format: functional
Target sequence in this assay (Q01726 whole entry): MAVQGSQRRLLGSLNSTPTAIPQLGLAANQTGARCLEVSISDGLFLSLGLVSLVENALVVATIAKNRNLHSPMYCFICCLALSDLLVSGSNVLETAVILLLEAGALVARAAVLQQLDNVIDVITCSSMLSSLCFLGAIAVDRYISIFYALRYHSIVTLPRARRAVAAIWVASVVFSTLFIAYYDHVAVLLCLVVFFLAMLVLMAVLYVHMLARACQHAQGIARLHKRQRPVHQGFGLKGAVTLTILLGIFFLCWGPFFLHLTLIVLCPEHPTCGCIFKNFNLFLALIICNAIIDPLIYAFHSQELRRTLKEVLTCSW

Melanocortin receptor 5 = Melanocortin receptor 5 (Homo sapiens, UniProt P33032); assay: Agonistic activity against human melanocortin receptor (hMC5R) for cAMP accumulation; format: functional
Melanocortin receptor 3 = Melanocortin receptor 3 (Homo sapiens, UniProt P41968); assay: Agonistic activity against human melanocortin receptor (hMC3R) for cAMP accumulation; format: functional
Melanocortin receptor 4 [3] = assay: (§1) Agonistic activity against human melanocortin receptor (hMC1R) for cAMP accumulation; format: functional
[4] = biological target: T2, Melanocyte-stimulating hormone receptor; assay: as §1; format: functional
Target sequence in this assay (Q01726 whole entry, looked up): as the sequence (Q01726 whole entry) above

Melanocortin receptor 4 [5] = biological target: T1, Melanocortin receptor 4; assay: Binding affinity towards human melanocortin receptor (hMC4R) using NDP-MSH as radioligand
[6] = biological target: T2, Melanocyte-stimulating hormone receptor; assay: Binding affinity towards human melanocortin receptor (hMC1R) using NDP-MSH as radioligand
Target sequence in this assay (Q01726 whole entry): as above

Melanocortin receptor 4 [7] = biological target: T1, Melanocortin receptor 4; assay: Agonistic activity against human melanocortin receptor (hMC4R) for cAMP accumulation; format: functional

T1 sequence (P32245 whole entry): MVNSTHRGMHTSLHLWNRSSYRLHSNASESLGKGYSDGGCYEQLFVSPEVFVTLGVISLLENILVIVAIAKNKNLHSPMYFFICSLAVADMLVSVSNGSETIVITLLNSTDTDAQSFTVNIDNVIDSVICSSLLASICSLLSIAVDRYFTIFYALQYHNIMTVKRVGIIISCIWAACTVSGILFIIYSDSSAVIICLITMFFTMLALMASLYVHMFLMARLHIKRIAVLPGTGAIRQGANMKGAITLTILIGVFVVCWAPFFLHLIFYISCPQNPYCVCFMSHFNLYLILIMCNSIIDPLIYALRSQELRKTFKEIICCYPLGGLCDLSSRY
Chain of Melanocortin receptor 5 (P33032 whole entry): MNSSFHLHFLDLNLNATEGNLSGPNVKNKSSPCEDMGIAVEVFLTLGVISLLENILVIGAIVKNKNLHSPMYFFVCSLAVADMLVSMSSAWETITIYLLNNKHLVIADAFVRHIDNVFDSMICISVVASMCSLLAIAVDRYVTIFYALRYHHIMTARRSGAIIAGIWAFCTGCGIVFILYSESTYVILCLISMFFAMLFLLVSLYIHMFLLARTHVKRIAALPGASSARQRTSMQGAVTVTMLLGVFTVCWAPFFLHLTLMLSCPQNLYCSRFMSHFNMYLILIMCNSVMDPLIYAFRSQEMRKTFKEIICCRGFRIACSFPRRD
Chain of Melanocortin receptor 3 (P41968 whole entry): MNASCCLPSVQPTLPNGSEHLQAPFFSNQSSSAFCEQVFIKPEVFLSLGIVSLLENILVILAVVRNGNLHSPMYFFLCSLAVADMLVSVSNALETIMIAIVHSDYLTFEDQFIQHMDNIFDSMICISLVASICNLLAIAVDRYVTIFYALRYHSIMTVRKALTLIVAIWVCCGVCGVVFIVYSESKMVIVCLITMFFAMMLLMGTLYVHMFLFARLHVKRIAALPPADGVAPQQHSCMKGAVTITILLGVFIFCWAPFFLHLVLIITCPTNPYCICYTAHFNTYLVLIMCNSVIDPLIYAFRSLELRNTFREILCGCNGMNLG

Structure (SMILES)	EC50 (Melanocortin receptor 4 [1])	IC50 (Melanocortin receptor 4 [5])	IC50 [6]	EC50 (Melanocortin receptor 4 [7])	further results
CCCCC(=O)N[C@H]1CC(=O)NCCCC[C@@H](C(N)=O)NC(=O)[C@H](Cc2c[nH]c3ccccc23)NC(=O)[C@H](CCCNC(=N)N)NC(=O)[C@@H](Cc2ccccc2)NC(=O)[C@H](Cc2cnc[nH]2)NC1=O	0.0009 µM	–	–	–	EC50 [2]: 0.0004 µM; EC50 (Melanocortin receptor 5): 0.033 µM; EC50 (Melanocortin receptor 3): 0.006 µM
CCCCC(=O)N[C@H]1CC(=O)NCCCC[C@@H](C(N)=O)NC(=O)[C@H](Cc2c[nH]c3ccccc23)NC(=O)[C@H](CCCNC(=N)N)NC(=O)[C@@H](Cc2ccccc2)NC(=O)[C@H](Cc2ccc(-c3ccccc3)cc2)NC1=O	0.006 µM	–	–	–	EC50 (Melanocortin receptor 4 [3]): 0.053 µM
CCCCC(=O)N[C@H]1CC(=O)NCCCC[C@@H](C(N)=O)NC(=O)[C@H](Cc2c[nH]c3ccccc23)NC(=O)[C@H](CCCN=C(N)N)NC(=O)[C@@H](Cc2ccccc2)NC(=O)[C@@H]2c3ccccc3CN2C1=O (single isomer, unassigned; form 1)	0.118 µM	–	–	–	EC50 [4]: 0.056 µM
CCCCC(=O)N[C@H]1CC(=O)NCCCC[C@@H](C(N)=O)NC(=O)[C@H](Cc2c[nH]c3ccccc23)NC(=O)[C@H](CCCNC(N)=O)NC(=O)[C@@H](Cc2ccccc2)NC(=O)C2(CCc3c(Cl)cccc3C2)NC1=O (single isomer, unassigned; form 1)	–	0.41 µM	13.1 µM	0.048 µM	–
CCCCC(=O)N[C@H]1CC(=O)NCCCC[C@@H](C(N)=O)NC(=O)[C@H](Cc2c[nH]c3ccccc23)NC(=O)[C@H](CCCNC(N)=O)NC(=O)[C@@H](Cc2ccccc2)NC(=O)C2(CCc3c(Cl)cccc3C2)NC1=O (single isomer, unassigned; form 2)	–	0.675 µM	14.8 µM	0.105 µM	–
